Test results reported in publication PMC10454396 (International Journal of Molecular Sciences, 2023).
≈ marks a conversion by molar mass, not a printed value. Like-named read-outs stand apart in the source and are kept apart here.

Experiments:
[1] = tested on: Staphylococcus aureus Newman WT; assay: MIC, broth microdilution, S. aureus Newman wild type; format: cell-based
Method: (§1) Cefazolin was obtained from Acros Organics. Ciprofloxacin hydrochloride, linezolid and vancomycin hydrochloride were obtained from Sigma-Aldrich (St. Louis, MO, USA). Tetracycline hydrochloride was obtained from Alfa Aesar. Sorangicin A was provided by HZI, Braunschweig. Stock solutions were prepared in Milli-Q water or dimethyl sulfoxide (DMSO, Sigma-Aldrich). Minimum inhibitory concentrations (MICs) were determined in cation-adjusted Mueller-Hinton broth (MHB2) using the broth microdilution method as recommended by the Clinical and Laboratory Standards Institute (CLSI). The MIC was defined as the lowest concentration of the antibiotic causing complete inhibition of visible growth of the microorganism (CLSI, 2017).
(§2) 1. In vitro characterization of mCherry expressing Staphylococcus aureus Newman
(§3) 1.1 Minimum inhibitory concentration
(§4) Table S1. Antibiotic susceptibility profile of Staphylococcus aureus Newman. WT: wild type. […]

[2] = tested on: Staphylococcus aureus Newman mCherry; assay: MIC, broth microdilution, mCherry-expressing S. aureus Newman; format: cell-based
Method: as §1, §2, §3, §4

[3] = tested on: mCherry-expressing S. aureus Newman; assay: Zebrafish embryo model of S. aureus yolk infection, antibiotic treatment efficacy; format: in vivo, Staphylococcus aureus
Method: With the aim to study the in vivo efficacy of drugs, 30 hpf zebrafish embryos were infected with 50 CFU of mCherry-expressing S. aureus Newman. Embryos were then left to recover from injection for two hours and subsequently treated with various reference antibiotics. Antibiotic treatment was performed via bath water immersion as well as via microinjection into the yolk (local treatment) and the caudal vein (systemic treatment) to study whether differences in in vivo activity exist between the three administration routes. Survival was assessed daily until 120 hpf. Additionally, the infection was visualized and quantified by means of fluorescence microscopy at 24 h post treatment (hpt). At the end of every experiment, living embryos (and dead embryos, if possible) were homogenized to determine the remaining bacterial count. Five approved antibiotics from different classes were assessed in vivo. The chosen drugs ought to differ in physicochemical properties, such as molecular weight and polarity, in order to detect a pattern between successful administration routes and the physicochemical properties of the drug. Prior to efficacy assessment, drug-mediated toxicity in zebrafish embryos was investigated using the same administration routes (Figure S3). For microinjection, a fixed dose of 20 to 30 mg/kg was used for each antibiotic. The concentration for bath water immersion was based on the minimum inhibitory concentration (MIC) and the maximum tolerated concentration (MTC) of the drug, whereby it is generally recommended to use 50- to 100-fold the antibacterial MIC to see a positive effect.
Pulled glass capillaries for microinjection (Table S2) were prepared using a micropipette puller (P-1000, Sutter Instrument). Dechorionated and anaesthetized embryos were infected with 50 colony-forming units (CFU) of mCherry-expressing S. aureus Newman by microinjection into the yolk sac at 30 hpf. In order to confirm bacterial numbers, an equal volume of bacterial cells was ejected onto Tryptic Soy Agar (TSA) supplemented with 10 µg/mL chloramphenicol before and after the injection. Antibiotic treatment was performed two hours post infection (hpi) via three different administration routes, namely bath water immersion and microinjection into the yolk sac as well as the caudal vein (CV). The infection procedure and treatment of infected embryos are described in details in the supplementary materials (Table S3).
Embryos were transferred individually to microcentrifuge tubes and washed at least three times with sterile PBS. 200 µL of sterile PBS were added and embryos were mechanically homogenized using a micropestle (Carl Roth, Karlsruhe, Germany). 800 µL of sterile PBS were added to reach a final volume of 1 mL. The homogenates were diluted and plated on tryptic soy agar (TSA). CFU counts were determined after 24 h of incubation at 37 °C.
Embryos were placed in a black 96-well plate (Falcon; Thermo Fisher, Dreieich, Germany) and cryo-anaesthetized by submersion into ice water. Images for quantitative fluorescence analysis were acquired using the following equipment: a fluorescence stereo microscope (M205 FA, Leica Microsystems, Wetzlar, Germany) in combination with a fluorescence illuminator (X-Cite, 200DC, Excelitas Technologies, Waltham, MA, USA) and a microscope camera (DFC7000 T, Leica Microsystems). Quantification of fluorescence was performed using Fiji ImageJ version 2.1.0. Fluorescent Integrated Density (FID) was determined by counting the number of pixels with fluorescence intensity greater than the threshold (10) and multiplying the count with its mean intensity. For confocal imaging, embryos were anaesthetized through immersion in tricaine (945 µM, Sigma-Aldrich) and immobilized in 1.2% low-melting agarose in a flat-bottom 96-well plate. Confocal images and time-lapse series were acquired using the Celldiscoverer 7 with LSM 900 (Zeiss) together with the 5×/0.35 Plan-APOCHROMAT objective.
2. […]

[4] = Staphylococcus aureus, S. aureus Newman WT, MHB2 broth microdilution, read-out: MIC
[5] = bath water immersion 50-100x MIC
[6] = caudal vein microinjection 20-30 mg/kg, 2 hpi
[7] = yolk microinjection 20-30 mg/kg, 2 hpi
[8] = S. aureus Newman WT, MHB2 broth microdilution
[9] = S. aureus Newman mCherry, MHB2 broth microdilution

Compound	MIC [1, 4] [µg/mL]	bacterial fluorescence (FID) at 24 hpt ([3]; bath water immersion)	effect on survival of infected embryos [3, 5]	bacterial fluorescence (FID) at 24 hpt ([3]; caudal vein microinjection)	effect on survival of infected embryos [3, 6]	bacterial fluorescence (FID) at 24 hpt ([3]; yolk microinjection)	effect on survival of infected embryos [3, 7]	further results
CC1(C)S[C@@H]2[C@H](NC(=O)[C@H](N)c3ccccc3)C(=O)N2[C@H]1C(=O)O [ampicillin]	0.125 (≈ 0.358 µM)	–	–	–	–	–	–	MIC ([2]; Staphylococcus aureus, NEWMAN): 0.5 µg/mL (≈ 1.43 µM)
Cc1nnc(SCC2=C(C(=O)O)N3C(=O)[C@@H](NC(=O)Cn4cnnn4)[C@H]3SC2)s1 [cefazolin]	–	FID values equal to the positive control	did not show any effect	No fluorescence was observed	exhibit treatment efficacy	No fluorescence was observed	exhibit treatment efficacy	bacteria recovered (CFU plating) at 120 hpf ([3]; caudal vein microinjection): no colonies were recovered; bacteria recovered (CFU plating) at 120 hpf ([3]; yolk microinjection): no colonies were recovered
O=C(N[C@H](CO)[C@H](O)c1ccc([N+](=O)[O-])cc1)C(Cl)Cl [chloramphenicol]	8 (≈ 24.8 µM)	–	–	–	–	–	–	MIC ([2]; Staphylococcus aureus, NEWMAN): 64 µg/mL (≈ 198 µM)
O=C(O)c1cn(C2CC2)c2cc(N3CCNCC3)c(F)cc2c1=O [ciprofloxacin]	0.25 (≈ 0.754 µM)	a decrease in FID values	slightly prolong survival	No fluorescence was observed	exhibit treatment efficacy	No fluorescence was observed	exhibit treatment efficacy	embryos died due to infection ([3]; bath water immersion, 50 CFU yolk infection): more than 80%; bacteria recovered (CFU plating) at 120 hpf ([3]; caudal vein microinjection): no colonies were recovered; bacteria recovered (CFU plating) at 120 hpf ([3]; yolk microinjection): no colonies were recovered
CC[C@H]1OC(=O)[C@H](C)[C@@H](O[C@H]2C[C@@](C)(OC)[C@@H](O)[C@H](C)O2)[C@H](C)[C@@H](O[C@@H]2O[C@H](C)C[C@H](N(C)C)[C@H]2O)[C@](C)(OC)C[C@@H](C)C(=O)[C@H](C)[C@@H](O)[C@]1(C)O [clarithromycin]	0.25 (≈ 0.334 µM)	–	–	–	–	–	–	–
CCCCCCCCCC(=O)N[C@@H](Cc1c[nH]c2ccccc12)C(=O)N[C@H](CC(N)=O)C(=O)N[C@@H](CC(=O)O)C(=O)N[C@@H]1C(=O)NCC(=O)N[C@@H](CCCN)C(=O)N[C@@H](CC(=O)O)C(=O)N[C@H](C)C(=O)N[C@@H](CC(=O)O)C(=O)NCC(=O)N[C@H](CO)C(=O)N[C@@H]([C@H](C)CC(=O)O)C(=O)N[C@@H](CC(=O)c2ccccc2N)C(=O)O[C@@H]1C [daptomycin]	2 (≈ 1.23 µM)	–	–	–	–	–	–	–
CC[C@H]1OC(=O)[C@H](C)[C@@H](O[C@H]2C[C@@](C)(OC)[C@@H](O)[C@H](C)O2)[C@H](C)[C@@H](O[C@@H]2O[C@H](C)C[C@H](N(C)C)[C@H]2O)[C@](C)(O)C[C@@H](C)C(=O)[C@H](C)[C@@H](O)[C@]1(C)O [erythromycin]	0.25 (≈ 0.341 µM)	–	–	–	–	–	–	–
CNC(C)C1CCC(N)C(OC2C(N)CC(N)C(OC3OCC(C)(O)C(NC)C3O)C2O)O1 (centres unmarked) [gentamicin]	0.5 (≈ 1.05 µM)	–	–	–	–	–	–	–
NC[C@H]1O[C@H](O[C@H]2[C@H](O)[C@@H](O[C@H]3O[C@H](CO)[C@@H](O)[C@H](N)[C@H]3O)[C@H](N)C[C@@H]2N)[C@H](O)[C@@H](O)[C@@H]1O [kanamycin]	–	–	–	–	–	–	–	MIC [1, 8]: 4 µg/mL (≈ 8.26 µM); MIC [2, 9]: 4 µg/mL (≈ 8.26 µM)
CN(C)[C@@H]1C(O)=C(C(N)=O)C(=O)[C@@]2(O)C(O)=C3C(=O)c4c(O)cccc4[C@@](C)(O)[C@H]3C[C@@H]12 [tetracycline]	0.25 (≈ 0.563 µM)	FID values equal to the positive control	did not show any effect	No fluorescence was observed	exhibit treatment efficacy	No fluorescence was observed	exhibit treatment efficacy	bacteria recovered (CFU plating) at 120 hpf ([3]; caudal vein microinjection): no colonies were recovered; bacteria recovered (CFU plating) at 120 hpf ([3]; yolk microinjection): no colonies were recovered
NC[C@H]1O[C@H](O[C@H]2[C@H](O)[C@@H](O[C@H]3O[C@H](CO)[C@@H](O)[C@H](N)[C@H]3O)[C@H](N)C[C@@H]2N)[C@H](N)C[C@@H]1O [tobramycin]	0.5 (≈ 1.07 µM)	–	–	–	–	–	–	–
CN[C@H](CC(C)C)C(=O)N[C@H]1C(=O)N[C@@H](CC(N)=O)C(=O)N[C@H]2C(=O)N[C@H]3C(=O)N[C@H](C(=O)N[C@H](C(=O)O)c4cc(O)cc(O)c4-c4cc3ccc4O)[C@H](O)c3ccc(c(Cl)c3)Oc3cc2cc(c3O[C@@H]2O[C@H](CO)[C@@H](O)[C@H](O)[C@H]2O[C@H]2C[C@](C)(N)[C@H](O)[C@H](C)O2)Oc2ccc(cc2Cl)[C@H]1O [vancomycin]	–	no reduction in bacterial fluorescence	No increased survival	no reduction in bacterial fluorescence	No increased survival	no development of fluorescence	prevented embryo death	MIC ([1]; Staphylococcus aureus, NEWMAN): 2 µg/mL (≈ 1.38 µM); MIC ([2]; Staphylococcus aureus, NEWMAN): 2 µg/mL (≈ 1.38 µM); survival ([3]; yolk microinjection (local treatment) 2 hpi, 50 CFU yolk infection): 90%; colonies recovered at the end of the experiment ([3]; yolk-treated embryos): 0–2500 CFU
teicoplanin	–	–	–	–	–	–	–	MIC [1, 8]: 1 µg/mL; MIC [2, 9]: 1 µg/mL
